# Laboratory results published in publication PMC2626250 (Toxicology and applied pharmacology, 2008).
# Tests used:
# [1] = oral administration of therapeutic doses; ref Conte et al., 2000; cited from earlier work
# [2] = test system: EtaA; conditions: pH 7.5; cited from earlier work
# [3] = test system: mFmos and hFMOs; conditions: 4 mM GSH added following 15 minutes of incubation; 200 μM ETA
# [4] = test system: mouse lung microsomes; assay: Effect of inhibitors on S-oxidation of ETA by mouse lung microsomes; assay type: in vitro ADME; conditions: 200 μM ETA
# [5] = test system: mouse liver microsomes; assay: Effect of inhibitors on S-oxidation of ETA by mouse liver microsomes; assay type: in vitro ADME; conditions: 200 μM ETA
smiles,measurement,setting,value
"CCc1cc(C(N)=S)ccn1 [ETA, ethionamide]",concentration of ETA in human plasma,[1],approximately 6 μM
same,concentration of ETA in lung alveolar cells,[1],~2.4 µM
same,concentration of ETA in lung epithelial lining fluid,[1],~35 µM
same,specificity constant for the formation of ETASO,[2],0.04
"N[C@@H](CCC(=O)N[C@@H](CS)C(=O)NCC(=O)O)C(=O)O [GSH, Glutathione]",ETASO removed,[3],~50%
CCCC(C(=O)OCCN(CC)CC)(c1ccccc1)c1ccccc1 [SKF-525A],activity remaining (appearance of ETASO),[4]; SKF-525A 1 mM,102.4%
same,activity remaining (appearance of ETASO),[5]; SKF-525A 1 mM,82.9%
NC(N)=S [thiourea],reduction of ETA oxygenation to ETASO,"[4]; thiourea 200 μM, average",76.9%
same,reduction of ETA oxygenation to ETASO,"[5]; thiourea 200 μM, average",73.5%
